Patent publication US20250288645A1, “USE OF GsMTx4 AND GsMTx4 CONJUGATES TO IMPROVE RECOVERY FROM JOINT INJURY” (priority 2023, published 2025)
Entries after “also recorded” stand apart in the source; their conditions may differ. No end group written: not given here.

Columns and labels:
chondrocytes = assay: Mechano-vulnerability (impact loading) assay on cartilage of treated ACL-injured mice; assay type: in vivo, mouse; conditions: ACL-I mice, 3 weeks post-ACL-I, versus saline-treated ACL-I mice
Excerpt: OA was induced by a bilateral anterior cruciate ligament-injury (ACL-I) in 8-week-old C57BL/6 mice. Piezo1-labeling intensity in articular chondrocytes and nerves in subchondral bone, the OA severity (OARSI score), the mechano-vulnerability of chondrocytes, and gait parameters was compared among four experimental groups-Control (uninjured), ACL-injured, ACL-injured with saline administration, and ACL-injured with GsMT4 treatment—at 3-weeks post-ACL-I.
FIG. 1E is a diagram showing impact loading applied to cartilage over a portion of a mouse bone as part of an assay for studying the resulting area of chondrocyte death, sometimes referred to a “mechano-death” or “mechano-vulnerability” assay. See, Kotelsky, et al., Osteoarthritis and Cartilage Open, 4 (1): 100227 (2022); doi.org/10.1016/j.ocarto. 2021.100227.
FIG. 2C presents two sets of two photos from animals that have undergone bilateral ACL injury. The animal in the photos in the top row was injected after the injury with saline solution (“ACLL+saline”), while the animal in the bottom row was injected at the same time points post-injury with GsMTx4 (“ACLI+GsMTx4”). The left photos show the amount of dead cells (in red, in the color original, compared to living cells, which have taken up a green label) and after application of a 1 mJ force. FIG. 2D presents a graph showing the results of the studies.

Piezo1 = assay: Massive rotator cuff tear mouse model: Piezo1 immunohistochemistry; assay type: in vivo
Experimental: A massive rotator cuff tear (RCT) model was performed by surgical ligation of the supraspinatus and infraspinatus tendons of the right shoulder of 14-week-old C57Bl/6 male and female mice through a deltoid splitting approach. Mice were anesthetized with 2% isoflurane gas mixed with oxygen. A single dose of buprenorphine SR (0.5 mg/kg) was injected subcutaneously at the nape. The right shoulder was prepped using a chemical hair removal agent, followed by betadine solution for 2 minutes and a rinse with 70% ethanol. The remaining steps were performed under sterile technique. A #11 scalpel blade was used to sharply incise the skin and subcutaneous tissues in a longitudinal incision over the palpable border of the lateral shoulder. The deltoid fascia and muscle were sharply incised in line with the skin incision with care not to dissect distally along the humerus to protect the axillary nerve. […] Animals were monitored daily for 3 days post-operatively, and no adverse events were noted. […]
For Piezo1 immunohistochemistry, deparaffinized and rehydrated slides were incubated in citrate buffer (10 mM sodium citrate, 0.05% Tween-20, pH 6.0) for […] at 75° C. […] Chondrocyte Piezo1 protein expression was quantified by average threshold intensity of immunofluorescence by ImageJ analysis through raw intensity averaging. […]

Substance: GsMTx4 (GCLEFWWKCNPNDDKCCRPKLKCSKLFKLCNFSF-NH2; ends and bridges not checked; listed as Grammostola spatulata)
- area of chondrocyte death by mechanical impact (chondrocytes): decreased area of chondrocyte death by impact; also recorded: decreased impact-induced mechanical-susceptibility
- humeral head chondrocyte Piezo1 protein expression versus contralateral control joint (Piezo1; RC ligation, subcutaneous twice weekly, 14 weeks post-operatively, p<0.05): significantly lower humeral head chondrocyte Piezo1 protein expression
- Piezo1 expression in cells from RCT shoulders versus animals not treated with GsMTx4 (Piezo1; RCT, treated post-injury with GsMTx4): reduced expressed of Piezo1
